In US20250051729A1, “METHOD FOR PREPARING HIGHLY DIFFERENTIATED KIDNEY ORGANOIDS” (RGENORGANO BIOTECHNOLOGY CO., LTD., priority 2021, published 2025):
“Also recorded” adds a separate entry of the source.

B1: agalsidase-α: recombinant human agalsidase-α used as recombinant enzyme replacement therapy (ERT) (protein, UniProt P06280 32-429, looked up)
Alpha-galactosidase A: LDNGLARTPTMGWLHWERFMCNLDCQEEPDSCISEKLFMEMAELMVSEGWKDAGYEYLCIDDCWMAPQRDSEGRLQADPQRFPHGIRQLANYVHSKGLKLGIYADVGNKTCAGFPGSFGYYDIDAQTFADWGVDLLKFDGCYCDSLENLADGYKHMSLALNRTGRSIVYSCEWPLYMWPFQKPNYTEIRQYCNHWRNFADIDDSWKSIKSILDWTSFNQERIVDVAGPGGWNDPDMLVIGNFGLSWNQQVTQMALWAIMAAPLFMSNDLRHISPQAKALLQDKDVIAINQDPLGKQGYQLRQGDNFEVWERPLSGLAWAVAMINRQEIGGPRSYTIAVASLGKGVACNPACFITQLLPVKRKLGFYEWTSRLRSHINPTGTVLLQLENTMQMSLKDLL

Experiments:
[1] = tested on: human iPSC-derived kidney organoids; experiment: Confocal imaging of PECAM1+ vasculature around NPHS1+ or WT1+ glomerular structure in kidney organoids; type: cell-based; details: Protocol B: VEGF (days 6, 9, 12, 14) and 10 μM Compound 1 (day 12) added together to Protocol A; FIG. 2A
Method: While Protocol B was largely similar to Protocol A, to enhance a vascular network, VEGF (10 ng/ml, 20 ng/ml, 30 ng/ml, and 50 ng/ml each) was treated on days 6, 9, 12, and 14, and to enhance podocyte differentiation, 10 μM Compound 1 was treated on day 12. For immunofluorescent analysis, organoids were fixed on day 18 unless otherwise noted. Specifically, for fixation, equal volumes of PBS (Thermo Fisher Scientific) and 8% paraformaldehyde (Electron Microscopy Sciences) were added to a medium for 15 minutes, and then the sample was washed with PBS three times. Subsequently, the fixed organoid culture was blocked with 5% donkey serum (Millipore)+0.3% Triton-X-100/PBS. Afterward, the blocked organoid culture was incubated in PBS containing 3% bovine serum albumin (Sigma)+ primary antibodies [anti-acetylated tubulin (Sigma-Aldrich T7451, 1:200), anti-collagen IV (Southern Biotech 1340-01, 1:300), anti-cytokeratin 8 (Abcam ab9023, 1:200), anti-GATA3 (R&D AF2605, 1:200), anti-Gb3 (TCI […], 1:200), anti-GLA (Thermo Fisher Scientific PA5-27349, 1:1000), anti-laminin (Sigma-Aldrich L9393. 1:200), anti-LTL (Vector Labs FL-1321, 1:200 dilution), […]32 (BD Pharmingen 555849, 1:200), anti-NPHS1 ([…] (Abcam ab9498, 1:200), anti-TUBA4A (Abcam ab24610, 1:200), and anti-WT1 (Abcam ab89901, 1:200)] overnight, washed, and then incubated with Alexa Fluor secondary antibodies (Invitrogen). […]

[2] = tested on: GLA mutant kidney organoids; experiment: Immunofluorescent staining of NPHS1, PECAM1 and LTL: vasculopathy phenotype in GLA mutant kidney organoids; type: cell-based, human; details: GLA mutant kidney organoids produced by Protocol B, ERT; FIG. 4F
Method: For immunofluorescent analysis, organoids were fixed on day 18 unless otherwise noted. Specifically, for fixation, equal volumes of PBS (Thermo Fisher Scientific) and 8% paraformaldehyde (Electron Microscopy Sciences) were added to a medium for 15 minutes, and then the sample was washed with PBS three times. Subsequently, the fixed organoid culture was blocked with 5% donkey serum (Millipore)+0.3% Triton-X-100/PBS. […]
Next, the phenotype of the vasculopathy in Fabry disease was determined using GLA mutant kidney organoids produced by Protocol B. Immunofluorescent staining analyses of NPHS1, PECAM1, and LTL were conducted on the wild type, GLA mutant kidney organoids, and human recombinant agalsidase-α-treated GLA mutant kidney organoids.

[3] = tested on: GLA mutant kidney organoids; experiment: Immunofluorescent staining of Gb3 (Gb3 positive area) in GLA mutant kidney organoids; type: cell-based, human; details: GLA mutant kidney organoids (Protocol B) after treatment with agalsidase-α (ERT); FIGS. 4D and 4E
Method: For immunofluorescent analysis, organoids were fixed on day 18 unless otherwise noted. Specifically, for fixation, equal volumes of PBS (Thermo Fisher Scientific) and 8% paraformaldehyde (Electron Microscopy Sciences) were added to a medium for 15 minutes, and then the sample was washed with PBS three times. Subsequently, the fixed organoid culture was blocked with 5% donkey serum (Millipore)+0.3% Triton-X-100/PBS. Afterward, the blocked organoid culture was incubated in PBS containing 3% bovine serum albumin (Sigma)+ primary antibodies [anti-acetylated tubulin (Sigma-Aldrich T7451, 1:200), anti-collagen IV (Southern Biotech 1340-01, 1:300), anti-cytokeratin 8 (Abcam ab9023, 1:200), anti-GATA3 (R&D AF2605, 1:200), anti-Gb3 (TCI A2506, 1:200), anti-GLA (Thermo Fisher Scientific PA5-27349, 1:1000), anti-laminin (Sigma-Aldrich L9393. 1:200), anti-LTL (Vector Labs FL-1321, 1:200 dilution), antiMECA32 (BD Pharmingen 555849, 1:200), anti-NPHS1 (R&D AF4269, 1:200), anti-Pecaml (Abcam ab9498, 1:200), anti-TUBA4A (Abcam ab24610, 1:200), and anti-WT1 (Abcam ab89901, 1:200)] overnight, washed, and then incubated with Alexa Fluor secondary antibodies (Invitrogen). Afterward, the resulting organoids were washed and stained with DAPI, or mounted using Vectashield H-1000. Images were obtained using a Zeiss LSM 700 confocal microscope (Carl Zeiss, Germany) and ZEN 3.1 software. […]

| Molecule | vascularization surrounding the glomerular structure [1] | vascular network (glomerular angiogenesis and formation of large lumen vessels) [2] | Gb3 accumulation [3] |
| --- | --- | --- | --- |
| NC(=O)c1ccc(-c2nc(-c3ccc4c(c3)OCO4)c(-c3ccccn3)[nH]2)cc1 [Compound 1, 4-[4-(1,3-benzodioxol-5-yl)-5-pyridin-2-yl-1H-imidazol-2-yl]benzamide, reference compound] | significantly improved | – | – |
| VEGF | significantly improved | – | – |
| B1 | – | restored the vascular network; also recorded: restored a vascular network | decreased |
